Data taken from patent publication US20260355180A1, “COMPOSITIONS AND METHODS FOR SPLICEOSOME-TARGETED THERAPIES” (Institute for Cancer Research d/b/a The Research Institute …, priority 2022, published 2026).
Entries after “also recorded” stand apart in the source; their conditions may differ.

How the values were obtained:
MEF ΔZBP1 cells [1] = test: Survival of PlaB treated MEF ΔZBP1; type: cell-based, mouse
Procedure: (§1) FIG. 16: Analysis of the effect of spliceosome inhibition on necroptosis in WT MEF cells. EV refers to cells treated with an empty vector.
(§2) Since induction of Z-nAs can result in ZBP1-dependent necroptosis, we analyzed induction of necroptosis in necroptotic competent MEFs using spliceosome inhibition. […] We also determined that MEFs ΔZBP1, WT, and Flag-ZBP1 cells treated with PlaB began dying within 24hours after treatment. With MEF Flag-ZBP1 cells showing only 20% survival after 24 hours (FIG. 16).

H82 SCLC cells [2] = test: RIPK1 depletion rescue of PlaB cytotoxicity, H82; type: cell-based; conditions: 18 hours of PlaB, RIPK1 depleted H82
Procedure: (§3) FIG. 2A) SCLC cell lines (H446 and H82) and immortalized fibroblasts (FC1010 and HS68) cell survival curves after 72 hours of PlaB treatment. FIG. 2B) RIPK1 depletion rescues H82 and H446 cell survival after 18 hours of PlaB treatment. FIG. 2C) Western blot showing RIPK1 protein depletion. Mean±SEM, Welch's t test *p<0.05, **p<0.01.
(§4) Cancer deregulates splicing^31,32, and we hypothesized that hyper-proliferative SCLCs are dependent on splicing machineries for increased tumorigenicity^90.

MEF Flag-ZBP1 cells [3] = test: Survival of PlaB treated MEF Flag-ZBP1; type: cell-based, mouse
Procedure: as §1, §2

H82 SCLC cells [4] = test: Cell survival after PlaB treatment, H82; type: cell-based
Procedure: as §3, §4

MEF ΔZBP1 cells [5] = test: pMLKL western blot / necroptosis, MEF ΔZBP1; type: cell-based, mouse; conditions: 2.5 nM PlaB, 18 hours
Procedure: (§5) FIG. 5A-5E: SF3B1 perturbation upregulates A-RNA and Z-nucleic acids in MEFs. (FIG. 5A) 5 nM of PlaB induces A-RNA and Z-Nucleic acids in ΔZBP1 MEF cells. (FIG. 5B) Quantification of A-RNA and Z-Nucleic acids. […] Plots of signal intensity are mean±SEM, two-tailed unpaired Student's t test *p<0.05, ***p<0.001, ****p<0.0001. 18 hours of PlaB treatment for IF, WB and rescue experiments. IF: 5 nM PlaB, WB and rescue experiments: 2.5 nM PlaB.
as §2

H82 KO cells = test: CytoToxicity of PlaB in TNFR1-, TRADD-, FADD-, CASP8-KO H82 cells (trypan blue); type: cell-based; conditions: 2.5 nM PlaB, 18 hrs
Description: (§6) […]: CytoToxicity analysis of PlaB in TNFR1-KO and TRADD-KO H82 cells […] and H446 cells (FIG. 16B). CytoToxicity analysis of PlaB in FADD-KO and CASP8-KO H82 cells (FIG. 16C) and H446 cells (FIG. 16D). EV refers to cells treated with an empty vector.
(§7) Since RIPK1 mediated apoptosis can be triggered by TNF110, TNFR1 and TRADD-KO SCLC cell lines are generated herein for subsequent studies. Here, we utilize CRISPR-Cas9 KO to effectively knockout TNFR1 and TRADD in SCLC cells. To confirm depletion of TNFR1 and TRADD proteins, cell lysates are collected and western blot analysis is performed. The following experiments are performed using the TNFR1 and TRADD-KO SCLC cells generated above.
(§8) H82 and H446 WT and TNFR1 and TRADD-KO cells generated above are treated with DMSO or 2.5 nM PlaB for 18 hrs. Then, the cells are counted using 0.4% trypan blue solution assessing total viable cells and the percent of cell survived with the H82 and H446 WT cells is compared. (FIG. 15A-15B) This allows us to confirm whether TNF is partially or fully responsible for PlaB-mediated cell death in SCLC cell lines.
(§9) Additionally, we analyzed the role played by FADD and CAPS8 in rescuing H82 and H446 cells from PlaB induced toxicity. Using the methods described above for the generation of TNFR1 and TRADD-KO cells, H82 and H446 FADD-KO cells and H82 and H446 CASP8-KO cells were generated. These cells were then treated with DMSO or 2.5 nM PlaB for 18 hrs and compared to WT H82 and H446 cells. […] (FIG. 15C and FIG. 15D)

MEF cells = test: A-RNA and Z-NA in MEF after PlaB with or without nucleases; type: cell-based, mouse
Procedure: FIG. 11A-11B: Analysis of Z-NA and A-RNA sources. (FIG. 11A) […] A-Nucleic acid accumulation in MEF cells after treatment with PlaB with or without Dnasel, RnaseA, or Rnase H. (FIG. 11B) Quantification of A-RNA and Z-Nucleic acids in treated cells. MEF EV refers to MEF cells treated with an empty vector.
The increases in A-RNA and Z-NA was further analyzed in MEF cells. Cells were treated with PlaB alone, or in combination with dNasel (dsDNA), rNaseA(dsRNA at [high]), or […] (DNA/RNA hybrid). […] (FIG. 11A-11B).

MEF Flag-ZBP1 cells [6] = test: pMLKL western blot / necroptosis, MEF Flag-ZBP1; type: cell-based, mouse; conditions: 2.5 nM PlaB, 18 hours, MEF Flag-ZBP1 (full-length ZBP1)
Procedure: as §5, §2

MEF ΔZBP1 cells [7] = test: A-RNA and Z-NA accumulation in MEF ΔZBP1; type: cell-based, mouse
Procedure: as §5, §2

H446 KO cells = test: CytoToxicity of PlaB in TNFR1-, TRADD-, FADD-, CASP8-KO H446 cells (trypan blue); type: cell-based, human; conditions: 2.5 nM PlaB, 18 hrs
Description: as §6, §7, §8, §9

H82 SCLC cells [8] = test: IFN response by rRT-qPCR, H82; type: cell-based; conditions: dose-dependent
Description: FIG. 3A-3D: SF3B1 inhibition induces a potent IFN response and increases expression of IFN-regulated proteins. […] Mean±SEM, two-tailed unpaired Student's t test *p<0.05, **p<0.01, ***p<0.001, ****p<0.0001.
We also observed that SF3B1 inhibition triggers robust anti-tumor response and upregulates IFN-β, IFN-γ, and IFN-responsive genes by real-time reverse-transcription quantitative polymerase chain reaction (rRT-qPCR) in H446 and H82 cells (FIGS. 3A and 3B). […] These observations indicate that spliceosome inhibition is useful as a targeted therapy for SCLCs.

[9] = PlaB and dNasel, rNaseA, or RnaseH

Compound: CCC(O)C(C)C1OC1CC(C)C=CC=C(C)C1OC(=O)CC(O)CCC(C)(O)C(OC(C)=O)C=CC1C (centres unmarked) [PlaB, Pladienolide B]
- time after treatment at which cells began dying (MEF ΔZBP1 cells [1]): ≤ 24 h
- cell survival upon RIPK1 depletion (H82 SCLC cells [2]): rescues
- time after treatment at which cells began dying (MEF Flag-ZBP1 cells [3]; MEF Flag-ZBP1): ≤ 24 h
- survival (MEF Flag-ZBP1 cells [3]; MEF Flag-ZBP1, after 24 hours): 20%
- cell survival (H82 SCLC cells [4]; 72 hours of PlaB, H82): drastically reduces cell survival; also recorded: dramatically reduces SCLC cell survival
- sensitivity to SF3B1 inhibition (H82 SCLC cells [4]; nanomolar concentration of PlaB): particularly sensitive
- pMLKL (necroptosis) (MEF ΔZBP1 cells [5]): not triggered
- rescue from PlaB toxicity by CASP8-KO (H82 KO cells; H82 CASP8-KO): effectively rescued
- rescue from PlaB toxicity by FADD-KO (H82 KO cells; H82 FADD-KO): effectively rescued
- rescue from PlaB toxicity by TNFR1-KO (H82 KO cells; H82 TNFR1-KO): effectively rescued
- rescue from PlaB toxicity by TRADD-KO (H82 KO cells; H82 TRADD-KO): effectively rescued
- A-RNAs and Z-nAs (MEF cells; PlaB alone): increase in both A-RNAs and Z-nAs
- A-RNAs and Z-nAs (MEF cells; [9]): still showed an increase in A-RNAs and Z-nAs
- increase in A-RNAs relative to PlaB alone (MEF cells; [9]): not as robust as PlaB alone
- pMLKL (necroptosis) (MEF Flag-ZBP1 cells [6]): triggered pMLKL; also recorded: induction of pMLKL
- A-RNA induction (MEF ΔZBP1 cells [7]; 5 nM PlaB, 18 hours): induces
- Z-Nucleic acids induction (MEF ΔZBP1 cells [7]; 5 nM PlaB, 18 hours): induces
- A-RNA and Z-NA accumulation (MEF ΔZBP1 cells [7]; SF3B1 inhibition): accumulation
- rescue from PlaB toxicity by CASP8-KO (H446 KO cells; H446 CASP8-KO): effectively rescued
- rescue from PlaB toxicity by FADD-KO (H446 KO cells; H446 FADD-KO): effectively rescued
- rescue from PlaB toxicity by TNFR1-KO (H446 KO cells; H446 TNFR1-KO): effectively rescued
- rescue from PlaB toxicity by TRADD-KO (H446 KO cells; H446 TRADD-KO): effectively rescued
- IFN response (H82 SCLC cells [8]): induces potent IFN response
